Assays:
A2780 cells = test: Total intracellular ROS (CM-DCFH-DA), A2780; type: cell-based, human; conditions: 2 h
Method: Monitoring total intracellular ROS (tROS)
A2780 cells were seeded in RPMI 1640 medium containing 5% FBS, 1% L-glutamine and 1% penicillin/streptomycin in a 24-well microtiter plate (total volume 0.5 mL) at a density of 200 cells/µL one day before the experiment. On the day of the experiment, the cells were washed twice with DPBS buffer and the medium was replaced with HBSS (Hanks' Balanced Salt solution, 500 μL). CM-DCFH-DA (5-(6-)chloromethyl-2',7'- dichlorodihydrofluorescein diacetate, Thermo- Fisher) solution (0.1 mM in DMSO, 5 μL) was added (final concentration 1 µM) and the cells were incubated in the dark chamber filled with CO2 (5%) at 37 °C for 15 min. […] Finally, the fluorescence of live cells (λex = 488 nm, λem = 525 nm) in the suspensions was determined by using flow cytometry (Figure 4A, 5C).
Intracellular ROS release in Jurkat cells was monitored analogously (Figure S58).
Figure S58. […] OY-axis “Fluorescence”: the increase of the mean fluorescence (λex = 488 […]

SBLF9 fibroblasts = test: Mitochondrial ROS imaging (MitoSOX), SBLF9 fibroblasts; type: cell-based; conditions: 5 µM
Method: The cells were re-suspended in RPMI 1640 medium containing 5% FBS, 1% L-glutamine and 1% penicillin/streptomycin (100 µL). Finally, the fluorescence of live cells (λex = 488 nm, λem = 530 nm) in the suspensions was determined by using flow cytometry (Figure […]
Figure S62. Fluorescence of DAF-FM diacetate-loaded A2780 cells treated either with 2c or the carrier. *: p<0.05, Student’s t test.
Effect of prodrug 2c on mitochondrial reactive oxygen species in representative cancer (A2780) and normal cells (SBLF9 fibroblasts) (Figure 6)
A2780 cells were seeded in of RPMI 1640 medium (500 µL) supplemented with 5% FBS, 1% L-glutamine, and 1% penicillin/streptomycin on a 35 mm imaging dish (µ- Dish 35 mm, high, ibidi GmbH, Germany) at a cell density of 80 cells/µL and allowed to attach to the surface of the dish for overnight. […]
The fluorescence images were taken with a Zeiss Axio Vert.A1 fluorescence microscope […]
4x10^4 cells per well. […] Cell viability was assessed by quantification of ATP (CellTiter Glo®, Promega) 48 hours after drug application.
Luminescence was measured on a Tecan Infinite F200 Microplate Reader. Viability was calculated as % of solvent (DMSO) treated control. […]

Question: `CC1(C)OB(c2ccc(COC(=O)N(Cc3cn(Cc4ccc(Cn5cc(Cc6ccccc6)nn5)cc4)nn3)[c-]3cccc3)cc2)OC1(C)C.[Fe+2].c1cc[cH-]c1` [2c] was tested. Which “total ROS (tROS) vs background” value (A2780 cells) did it give?
Answer: significantly higher than its background levels

Question: What about the “mROS level in normal cells” value (SBLF9 fibroblasts) of the same molecule?
Answer: only a slight increase of mROS level

From PMC8750417, “Intracellular Amplifiers of Reactive Oxygen Species Affecting Mitochondria as Radiosensitizers” (Cancers, 2021)
